SMILES strings stand for the structures. Where two headings read alike, the source gives them in different places. Where only a bound is given, the exact number is not on record here.

Drawing on patent US20070117836A1, “NAPTHALIMIDE DERIVATIVES, METHODS FOR THEIR PRODUCTION AND PHARMACEUTICAL COMPOSITIONS THEREFROM” (priority 2004, published 2007), this text covers MTD, IC50 and response vs control in vivo for 21 compounds.

A short description of one data set: in vivo. Conditions: mouse.
Data set [1] relates to Six human cancer cell lines (Hs683, U-373MG, HCT-15, LoVo, A549, MCF-7). The experiment in a line: MTT test of overall cell growth. It counts as cell-based. Conditions: Homo sapiens, 72 h. The procedure:
In order to characterize the in vitro activity of the compounds of the invention, MTT tests were performed to indirectly and rapidly measure, i.e. within 5 days, the effect of such a compound on the overall cell growth. The test measures the number of metabolically active living cells that are able to transform the yellow product 3-(4,5-dimethylthiazol-2-yl)-2,5-diphenyl tetrazolium bromide (herein referred as MTT) into the blue product formazan dye by mitochondrial reduction. The amount of formazan obtained at the end of the experiment was measured by means of a spectrophotometer and is directly proportional to the number of living cells. Determination of the optical density enables a quantitative measurement of the effect of the investigated compounds as compared to the control condition (untreated cells) and/or to other reference compounds (in casu mitonafide and amonafide).
Six human cancer cell lines described in table 1 were used in the MTT tests. These cell lines cover four histological cancer types, being glioma, colon, lung and breast cancers. Cells were allowed to grow in 96-well micro-wells with a flat bottom with an amount of 100 μl of cell suspension per well with 1,000 to 4,000 cells/well depending on the cell type used. Each cell line was seeded in an MEM 5% serum culture medium.
The detailed experimental procedure was as follows: after a 24-hour period of incubation at 37° C., the culture medium was replaced by 100 μl of fresh medium in which the compound to be tested was dissolved at the following molar concentrations: 10^−9 M, 5.10^−9 M, 10^−8 M, 5.10^−8 M, 10^−7 M, 5.10^−7 M, 10^−6 M, 5.10^−6 M and 10^−5 M. Each experiment was repeated 6 times.
After 72 hours of incubation at 37° C. with (experimental conditions) or without (control condition) the compound to be tested, the medium was replaced by 100 μl MTT dissolved in RPMI at a concentration of 1 mg/ml. The micro-wells were subsequently incubated during 3 hours at 37° C. and centrifuged at 400 g during 10 minutes. MTT was removed and formazan crystals formed were dissolved in 100 μl DMSO. The micro-wells were shaken for 5 minutes and read on a spectrophotometer at wavelengths of 570 nm (maximum formazan absorbance) and 630 nm (background noise).
For each experimental condition, the mean optical density was calculated, as well as the percentage of remaining living cells in comparison with the control.
Background: Tetrazolium assays rely on reduction of a dye to a coloured formazan, in cell work by metabolically active cells.

The test system of a further data set is L1210 (Mouse Leukemia). The experiment in a line: L1210 mouse leukemia model, survival. It counts as in vivo, mice. The following applies: Mus musculus, L1210, ip, median day of death treated/control; for response vs control in vivo at 40 mg/kg: dose 40 mg/kg intraperitoneally at days 1, 2, 3, 4, 7, 8, 9 and 10; for response vs control in vivo at 80 mg/kg: dose 80 mg/kg intraperitoneally at days 1, 2, 3, 4, 7, 8, 9 and 10. As to the method:
L1210 is a syngeneic model (Mouse Leukemia) which may be used to define an optimal treatment regimen (doses and schedule) for subsequent testing of drugs in more expensive and time-consuming orthotopic human xenograft models. The model was performed with 5 mice per group, said mice being grafted at day 0 and the tested compounds being injected intraperitoneally (at the dose indicated in table 4) at days 1, 2, 3, 4, 7, 8, 9 and 10 respectively. The data shown in table 4 are T/C values which were calculated by dividing the median day of death in a treated group T by the median day of death in the control group C. T/C values of 130% or more (i.e. a prolongation of mice survival of 30% or more) indicate a significant prolongation of survival.
The experimental procedure of example 25 was repeated with compounds of examples 17, 19, 33 and 35, and the data obtained from this experiment are reported in table 7.

Where [2] appears, read: range of molar concentrations giving 50% inhibition of overall tumor cells growth, MTT, 72 hours incubation, six human cancer cell lines, read-out: IC50.
[3] abbreviates: dose 10 mg/kg intraperitoneally at days 1, 2, 3, 4, 7, 8, 9 and 10, read-out: T/C (%).
[4] abbreviates: dose 20 mg/kg intraperitoneally at days 1, 2, 3, 4, 7, 8, 9 and 10, read-out: T/C (%).
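Throughout, for MTD: highest single acute dose (intraperitoneal, intravenous, subcutaneous or oral) tolerated by tumor-free mice, assessed across five dose levels per drug.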

Experimental for in vivo: The maximum tolerated dose (herein after MTD) is defined as the maximum amount of a given drug which can be administered acutely (i.e. in one intraperitoneal, intravenous, subcutaneous or oral single dose) to healthy animals, i.e. animals not grafted with tumors. The survival times and weights of the animals are recorded up to 14 days post injection. Five different doses of each drug are used for the determination of the MTD index. […] Each experimental group comprised 3 mice for the determination of the MTD index (expressed in mg/kg).

In turn, `COc1cc(/C=N\c2cc3c4c(cccc4c2)C(=O)N(CCN(C)C)C3=O)cc(OC)c1OC` [Example 20, 2-[2-(dimethylamino)ethyl]-5-{[(1Z)-(3,4,5-trimethoxyphenyl)methylene]amino}-1H-benzo[de]isoquinoline-1,3(2H)-dione] displayed an MTD at 14 days in the data set “in vivo” of more than 80 mg/kg. In data set [1] (setting [2]), the IC50 (usually the point on the concentration scale where inhibition reaches its midpoint) was 5 to 10 µM.
The like results for `CCOC(=O)NC(=O)Nc1cc2c3c(cccc3c1)C(=O)N(CCN(C)C)C2=O` [Example 4, ethyl({2-[2-(dimethylamino)ethyl]-1.3-dioxo-2,3-dihydro-1H-benzo[de]isoquinolin-5-yl}amino)carbonylcarbamate] were, in that order, 80 mg/kg and 1 to 5 µM.
The matching figures for `CN(C)CCN1C(=O)c2cccc3cc(N=Cc4ccc(C#N)cc4)cc(c23)C1=O` [Example 28, 2-[2-dimethylamino)ethyl]-5-{[(1Z)-(4-cyano-phenyl)-5-ylmethylene]amino}-1H-benzo[de]isoquinolin-1,3(2H)-dione]: more than 80 mg/kg and 5 to 10 µM.
The like results for `CN(C)CCN1C(=O)c2cccc3cc(NC(=S)Nc4ccc(Cl)cc4)cc(c23)C1=O` [Example 26, N-[2-[2-(dimethylamino)ethyl]-1,3-dioxo-2,3-dihydro-1H-benzo[de]isoquinolin-5-yl]-N′-(4-chlorophenyl)thiourea] were, in that order, more than 80 mg/kg and more than 10 µM.
`CN(C)CCN1C(=O)c2cccc3cc(N=Cc4cc5c(cc4[N+](=O)[O-])OCO5)cc(c23)C1=O` [Example 35, 5-{[(1Z)-benzo([1,3]dioxol-6-nitro)-5-yl-methylene]amino}-N-(2-[2-dimethylamino)ethyl]-1H-benzo[de]isoquinolin-1,3(2H)-dione] registered an MTD at 14 days in “in vivo” of 80 mg/kg. The IC50 in data set [1] (setting [2]) is more than 10 µM. Also, the response vs control in vivo at 10 mg/kg in the data set on L1210 (Mouse Leukemia) (setting [3]) came out at 213%. Also, in the data set with L1210 (Mouse Leukemia) (setting [4]), the response vs control in vivo at 20 mg/kg worked out at 193%. In addition, in the data set with L1210 (Mouse Leukemia) (read-out: T/C (%)), the response vs control in vivo at 40 mg/kg is 280% and the response vs control in vivo at 80 mg/kg was more than 300%.
Consider `CN(C)CCN1C(=O)c2cccc3cc([N+](=O)[O-])cc(c23)C1=O` [mitonafide, reference compound], for which the MTD at 14 days in the data set “in vivo” was determined as 40 mg/kg. The IC50 in data set [1] (setting [2]) lay in the range of 1 to 5 µM. The response vs control in vivo at 2.5 mg/kg in the data set with L1210 (Mouse Leukemia) (read-out: T/C (%), dose 2.5 mg/kg intraperitoneally at days 1, 2, 3, 4, 7, 8, 9 and 10) was 107%. In addition, the response vs control in vivo at 5 mg/kg in the data set with L1210 (Mouse Leukemia) (read-out: T/C (%), dose 5 mg/kg intraperitoneally at days 1, 2, 3, 4, 7, 8, 9 and 10) was determined as 140%. Moreover, the response vs control in vivo at 10 mg/kg in the data set with L1210 (Mouse Leukemia) (read-out: T/C (%), dose 10 mg/kg intraperitoneally at days 1, 2, 3, 4, 7, 8, 9 and 10) worked out at 120%. The response vs control in vivo at 20 mg/kg in the data set with L1210 (Mouse Leukemia) (read-out: T/C (%), dose 20 mg/kg intraperitoneally at days 1, 2, 3, 4, 7, 8, 9 and 10) came to 193%.
With `CN(C)CCN1C(=O)c2cccc3cc(NC(=O)C(Cl)(Cl)Cl)cc(c23)C1=O` [Example 16, 2,2,2-trichloro-N-{2-[2-(dimethylamino)ethyl]-1,3-dioxo-2,3-dihydro-1H-benzo[de]isoquinolin-5-yl}acetamide], the MTD at 14 days in “in vivo” is more than 80 mg/kg. Also, the IC50 in data set [1] (setting [2]) was more than 10 µM.
With `CN(C)CCN1C(=O)c2cccc3cc(NC(=O)NC(=O)c4ccccc4)cc(c23)C1=O` [Example 3, N-[({2-[2-(dimethylamino)ethyl]-1.3-dioxo-2,3-dihydro-1H-benzo[de]isoquinolin-5-yl}amino)carbonyl]benzamide], the MTD at 14 days in “in vivo” (intraperitoneal) stood at 80 mg/kg. Further, the IC50 in data set [1] (setting [2]) is 1 to 5 µM.
In the case of `CN(C)CCN1C(=O)c2cccc3cc(NC(=O)Nc4ccc5c(c4)OCO5)cc(c23)C1=O` [Example 9], the MTD at 14 days in “in vivo” (intraperitoneal) was more than 160 mg/kg. Also, in data set [1] (setting [2]), the IC50 was 5 to 10 µM. The response vs control in vivo at 10 mg/kg with L1210 (Mouse Leukemia) (setting [3]) worked out at 113%. Also, the response vs control in vivo at 20 mg/kg in the data set with L1210 (Mouse Leukemia) (setting [4]) came out at 140%. For the same compound, in the data set with L1210 (Mouse Leukemia) (read-out: T/C (%)), the response vs control in vivo at 40 mg/kg worked out at 160% and the response vs control in vivo at 80 mg/kg stood at 187%.
Consider `COc1cc(C=Nc2cc3c4c(cccc4c2)C(=O)N(CCN(C)C)C3=O)ccc1O` [Example 18, 5-{[(1Z)-(4-hydroxy-3-methoxyphenyl)methylene]amino}-2-[2-(dimethylamino)ethyl]l-1H-benzo[de]isoquinoline-1,3(2H)-dione], for which, in the data set “in vivo”, the MTD at 14 days was more than 80 mg/kg. The IC50 in data set [1] (setting [2]) was more than 10 µM.
Compound `CCOC(=O)c1ccc(NC(=O)Nc2cc3c4c(cccc4c2)C(=O)N(CCN(C)C)C3=O)cc1` [Example 8] had an MTD at 14 days in the data set “in vivo” (intraperitoneal) of more than 160 mg/kg. For the same compound, the IC50 in data set [1] (setting [2]) was 1 to 5 µM.
In “in vivo”, `CN(C)CCN1C(=O)c2cccc3cc(NCc4ccccc4OC4OC(CO)C(O)C(O)C4O)cc(c23)C1=O` (centres unmarked) [Example 37] displayed an MTD at 14 days of more than 80 mg/kg. Further, the IC50 in data set [1] (setting [2]) was in the range of 5 to 10 µM.
The compound `CCOC(=O)CCC(=O)Nc1cc2c3c(cccc3c1)C(=O)N(CCN(C)C)C2=O` [Example 11] returned an MTD at 14 days in “in vivo” (intraperitoneal) of more than 160 mg/kg. For the same compound, in data set [1] (setting [2]), the concentration for half-maximal inhibition (IC50) is more than 10 µM.
`CN(C)CCN1C(=O)c2cccc3cc(NCc4cc5c(cc4[N+](=O)[O-])OCO5)cc(c23)C1=O` [Example 40] registered an MTD at 14 days in the data set “in vivo” of more than 80 mg/kg. The IC50 in data set [1] (setting [2]) is more than 10 µM.
Compound `CN(C)CCN1C(=O)c2cccc3cc(NCc4cc5c(cc4[N+](=O)[O-])OCO5)cc(c23)C1=O.Cl` [Example 41] gave an MTD at 14 days in the data set “in vivo” of more than 80 mg/kg.
`CN(C)CCN1C(=O)c2cccc3cc(NC(=S)Nc4ccc(C#N)cc4)cc(c23)C1=O` [Example 27, N-[2-[2-(dimethylamino)ethyl]-1,3-dioxo-2,3-dihydro-1H-benzo[de]isoquinolin-5-yl]-N′-(4-cyanophenyl)thiourea]: the MTD at 14 days in “in vivo” was more than 80 mg/kg. Moreover, the IC50 in data set [1] (setting [2]) is more than 10 µM.
The like results for `CN(C)CCN1C(=O)c2cccc3cc(NCc4ccc5c(c4)OCO5)cc(c23)C1=O` [Example 36, 5-{[1,3-benzodioxol-5-ylmethyl]amino}-N-(2-[2-dimethylamino)ethyl]-1H-benzo[de]isoquinolin-1,3(2H)-dione] were, in that order, more than 80 mg/kg and 5 to 10 µM.
For the compound `CN(C)CCN1C(=O)c2cccc3cc(NC(=O)Nc4ccc(Cl)cc4)cc(c23)C1=O` [Example 6, N-[2-[2-(dimethylamino)ethyl]-1,3-dioxo-2,3-dihydro-1H-benzo[de]isoquinolin-5-yl]-N′-(4-chlorophenyl)urea], in “in vivo” (intraperitoneal), the MTD at 14 days was more than 160 mg/kg. Also, the IC50 in data set [1] (setting [2]) was 1 to 5 µM.
Consider `CN(C)CCN1C(=O)c2cccc3cc(NC(=S)NCc4ccc5c(c4)OCO5)cc(c23)C1=O` [Example 22], for which, in the data set “in vivo”, the MTD at 14 days is more than 80 mg/kg. Besides, the IC50 in data set [1] (setting [2]) was more than 10 µM.
The like results for `CN(C)CCN1C(=O)c2cccc3cc(NCc4ccc5c(c4)OCCO5)cc(c23)C1=O` [Example 42] were, in that order, more than 80 mg/kg and 5 to 10 µM.
In the data set “in vivo”, `CN(C)CCN1C(=O)c2cccc3cc(NC(=O)NCCCl)cc(c23)C1=O` [Example 5, N-[2-[2-(dimethylamino)ethyl]-1,3-dioxo-2,3-dihydro-1H-benzo[de]isoquinolin-5-yl]-N′-(2-chloroethyl)urea] yielded an MTD at 14 days of more than 160 mg/kg. This compound registered an IC50 in data set [1] of 1 to 5 µM.
